The text below walks through data of patent US20170037028A1 (BAYER PHARMA AKTIENGESELLSCHAFT, priority 2013, published 2017).

This experiment has as its target T1, GLUT1 (Homo sapiens, UniProt P11166).
T1 sequence (P11166 1-492): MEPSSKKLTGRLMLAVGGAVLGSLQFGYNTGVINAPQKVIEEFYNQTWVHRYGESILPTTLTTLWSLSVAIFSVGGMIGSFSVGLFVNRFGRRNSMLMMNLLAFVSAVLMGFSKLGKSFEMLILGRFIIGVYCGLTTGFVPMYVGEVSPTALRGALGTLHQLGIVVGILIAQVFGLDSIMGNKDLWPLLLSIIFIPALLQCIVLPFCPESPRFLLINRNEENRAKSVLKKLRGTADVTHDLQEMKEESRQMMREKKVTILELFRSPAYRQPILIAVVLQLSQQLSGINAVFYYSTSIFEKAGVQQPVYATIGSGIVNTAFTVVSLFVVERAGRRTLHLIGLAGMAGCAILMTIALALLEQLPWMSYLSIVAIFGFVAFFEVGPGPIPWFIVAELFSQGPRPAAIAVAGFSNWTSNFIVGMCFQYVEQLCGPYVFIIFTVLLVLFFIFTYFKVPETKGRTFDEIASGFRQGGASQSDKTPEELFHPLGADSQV
The experiment is described as follows: Indirect measurement of GLUT1 activity by quantification of intracellular ATP levels (glucose induced ATP increase). The arrangement: endogenous in cells; host or cells: DLD1 or CHO-K1. The format is cell-based. As to conditions: read-out: IC50 regarding glucose induced ATP increase (GLUT1 inhibition). The procedure, abridged:
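Intracellular ATP was measured by CellTiter-Glo luminescence as an indirect readout of transport: glucose-driven for GLUT1, fructose-driven for GLUT2. DLD1 or CHO-K1 cells were used alongside an oxidative phosphorylation inhibitor. Beforehand, cells were held overnight in glucose-free 1% FCS medium to deplete ATP.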
On to `COc1cc(Cn2nc(C(F)(F)F)c(NC(=O)c3cc(C(N)=O)nc4cc(F)ccc34)c2C)ccc1C#N` [Example 1664], for which the IC50 (in general, the concentration needed to halve the response being measured) was found to be 2.6 nM.
Under `COCCNC(=O)c1ccc(Cn2nc(C(F)(F)F)c(NC(=O)c3cc(C(N)=O)nc4cc(F)ccc34)c2C)cc1` [Example 373, 7-fluoro-N^4-[1-{4-[(2-methoxyethyl)carbamoyl]benzyl}-5-methyl-3-(trifluoromethyl)-1H-pyrazol-4-yl]quinoline-2,4-dicarboxamide] stands 17.5 nM; under `Cc1c(NC(=O)c2cc(C(N)=O)nc3cc(F)ccc23)c(C(C)C)nn1Cc1ccc(C#N)cc1` [Example 321, N^4-[1-(4-cyanobenzyl)-3-isopropyl-5-methyl-1H-pyrazol-4-yl]-7-fluoroquinoline-2,4-dicarboxamide], 7.2 nM; under `CCOC(=O)c1c(NC(=O)c2cc(C(F)(F)F)nc3ccc(Br)cc23)c(C)nn1Cc1ccc(F)cc1` [Example 1255], 2010 nM.
In the case of `Cc1c(NC(=O)c2cc(C(N)=O)nc3ccc(S(N)(=O)=O)cc23)c(C(F)(F)F)nn1Cc1ccc(C#N)cc1` [Example 1382], the IC50 was 5370 nM.
As to `Cc1ccc2nc(C)cc(C(=O)Nc3c(C)nn(Cc4ccc(Br)cc4)c3C)c2c1` [Example 1113], the IC50 was determined as 58.5 nM.
`COC(=O)[C@@H](NC(=O)c1ccc(Cn2nc(C)c(NC(=O)c3cc(C(F)(F)F)nc4ccc(Br)cc34)c2C)cc1)[C@@H](C)O` [Example 1104]: the IC50 came out at 47.8 nM.
Regarding `CNC(=O)c1cc(C(=O)Nc2c(C)nn(Cc3ccc(F)cc3)c2C)c2ccccc2n1` [Example 172, N^4-[1-(4-fluorobenzyl)-3,5-dimethyl-1H-pyrazol-4-yl]-N^2-methylquinoline-2,4-dicarboxamide], the IC50 is 59.1 nM.
`COc1ccc2nc(O)cc(C(=O)Nc3c(C)nn(Cc4ccc(F)cc4)c3C)c2c1` [Example 75, N-[1-(4-fluorobenzyl)-3,5-dimethyl-1H-pyrazol-4-yl]-2-hydroxy-6-methoxyquinoline-4-carboxamide]: the IC50 came out at 182 nM.
Under `Cc1c(NC(=O)c2cc(C(F)(F)F)nc3ccc(Br)cc23)c(C(F)(F)F)nn1Cc1ccc(C#N)cn1` [Example 362, 6-bromo-N-{1-[(5-cyanopyridin-2-yl)methyl]-5-methyl-3-(trifluoromethyl)-1H-pyrazol-4-yl}-2-(trifluoromethyl)quinoline-4-carboxamide] stands 5.5 nM; under `COc1cc(C(=O)Nc2c(C)nn(Cc3ccc(S(C)(=O)=O)cc3)c2C)c2ccccc2n1` [Example 1052], 13.1 nM.
In the case of `COc1cccc(Cn2nc(C)c(NC(=O)c3cc(C(N)=O)nc4ccc(Br)cc34)c2C)c1` [Example 1458], the 50% inhibitory concentration (IC50) is 2.3 nM.
As to `CNC(=O)c1ccc(Cn2nc(C(F)(F)F)c(NC(=O)c3cc(C(F)(F)F)nc4ccc(Br)cc34)c2C)nc1` [Example 1078], the IC50 is 23.9 nM.
Turning to `CCOC(=O)c1cc(Cn2nc(C(F)(F)F)c(NC(=O)c3cc(C(N)=O)nc4cc(F)c(Cl)cc34)c2C)on1` [Example 1683], the IC50 is 109 nM.
On to `CCc1noc(Cn2nc(C(F)(F)F)c(NC(=O)c3cc(C(N)=O)nc4ccccc34)c2C)n1` [Example 1536], for which the half-maximal inhibitory concentration (IC50) is 79.1 nM.
With `COC(=O)N1CCC(Cn2nc(C)c(NC(=O)c3cc(C(N)=O)nc4ccccc34)c2C)CC1` [Example 1155], the half-maximal inhibitory concentration (IC50) worked out at 140 nM.
Consider `Cc1ccc2nc(C)cc(C(=O)Nc3c(C)nn(Cc4cccc(C(F)(F)F)c4)c3C)c2c1` [Example 1300], for which the half-maximal inhibitory concentration (IC50) came to 11100 nM.
As for `Cc1nn(Cc2ccc(F)cc2F)c(C)c1NC(=O)c1cc(C(N)=O)nc2cc(F)c(Cl)cc12` [Example 1489], the IC50 amounted to 6 nM.
Consider `Cc1nn(Cc2ccc(C#N)cc2)c(C)c1NC(=O)c1cc(C(N)=O)nc2c(F)cccc12` [Example 263, N^4-[1-(4-cyanobenzyl)-3,5-dimethyl-1H-pyrazol-4-yl]-8-fluoroquinoline-2,4-dicarboxamide], for which the IC50 amounted to 3.9 nM.
As to `Cc1nn(Cc2ccccc2C#N)c(C)c1NC(=O)c1cc(C(F)(F)F)nc2cc(F)c(F)cc12` [Example 175, N-[1-(2-cyanobenzyl)-3,5-dimethyl-1H-pyrazol-4-yl]-6,7-difluoro-2-(trifluoromethyl)quinoline-4-carboxamide], the IC50 turned out to be 70.7 nM.
On to `Cc1c(NC(=O)c2cc(C(N)=O)nc3cc(F)ccc23)c(C(F)(F)F)nn1Cc1cccc(S(C)(=O)=O)c1` [Example 1637], for which the IC50 stood at 288 nM.
Turning to `Cc1nn(Cc2ccc(F)cc2)c(C)c1NC(=O)c1cc(C(F)(F)F)nc2cc(C(F)(F)F)ccc12` [Example 1276], the IC50 came to 3810 nM.
Take `CNC(=O)c1nc(Cn2nc(C)c(NC(=O)c3cc(C(N)=O)nc4ccccc34)c2C)no1` [Example 1509]: the half-inhibitory concentration (IC50) stood at 16.3 nM.
In the case of `Cc1ccc2nc(C)cc(C(=O)Nc3c(C)nn(CC4CCOCC4)c3C)c2c1` [Example 1176] it was 208 nM; in that of `Cc1nn(Cc2ccc(F)cc2F)c(C)c1NC(=O)c1cc(C(F)(F)F)nc2c(Cl)cc(Cl)cc12` [Example 48, 6,8-dichloro-N-[1-(2,4-difluorobenzyl)-3,5-dimethyl-1H-pyrazol-4-yl]-2-(trifluoromethyl)quinoline-4-carboxamide], 44.4 nM; in that of `CNC(=O)c1c(NC(=O)c2cc(C(F)(F)F)nc3ccc(Br)cc23)c(C)nn1Cc1ccc(F)cc1` [Example 1036], 5.1 nM.
Under `Cc1nn(Cc2ccc(C(=O)N(CCO)CCO)cc2)c(C)c1NC(=O)c1cc(C(F)(F)F)nc2ccc(Br)cc12` [Example 1145] stands 116 nM; under `Cc1nn(Cc2ccc(C(=O)NCc3nccs3)cc2)c(C)c1NC(=O)c1cc(C(F)(F)F)nc2ccc(Br)cc12` [Example 1130], 86.6 nM.
Under `COCc1ccc(Cn2nc(C(F)(F)F)c(NC(=O)c3cc(C(N)=O)nc4cc(F)ccc34)c2C)cc1` [Example 401, 7-fluoro-N^4-{1-[4-(methoxymethyl)benzyl]-5-methyl-3-(trifluoromethyl)-1H-pyrazol-4-yl}quinoline-2,4-dicarboxamide] stands 10 nM; under `CCc1nn(Cc2ccc(C#N)cc2)c(CC)c1NC(=O)c1cc(C(N)=O)nc2ccccc12` [Example 310, N^4-[1-(4-cyanobenzyl)-3,5-diethyl-1H-pyrazol-4-yl]quinoline-2,4-dicarboxamide], 47.2 nM; under `COCc1ccc(Cn2nc(C)c(NC(=O)c3cc(C(N)=O)nc4cc(F)ccc34)c2C)cc1` [Example 1582], 3.9 nM.
Turning to `Cc1nn(Cc2ccc(CC(=O)NCCN3CCOCC3)cc2)c(C)c1NC(=O)c1cc(C(F)(F)F)nc2ccc(Br)cc12` [Example 1240], the IC50 amounted to 1500 nM.
`Cc1nn(Cc2cccc(OC(F)(F)F)c2)c(C)c1NC(=O)c1cc(C(F)(F)F)nc2c(Cl)cc(Cl)cc12` [Example 93, 6,8-dichloro-N-{3,5-dimethyl-1-[3-(trifluoromethoxy)benzyl]-1H-pyrazol-4-yl}-2-(trifluoromethyl)quinoline-4-carboxamide]: the IC50 was 292 nM.
`Cc1nn(Cc2ccc(Cl)cc2)c(C)c1NC(=O)c1cc(C(F)(F)F)nc2ccc(Br)cc12` [Example 148, 6-bromo-N-[1-(4-chlorobenzyl)-3,5-dimethyl-1H-pyrazol-4-yl]-2-(trifluoromethyl)quinoline-4-carboxamide]: the IC50 came to 11.4 nM.
As for `Cc1c(NC(=O)c2cc(C(N)=O)nc3cc(F)ccc23)c(C(F)(F)F)nn1Cc1ccc(C(=O)N(C)C)cc1` [Example 371, N^4-{1-[4-(dimethylcarbamoyl)benzyl]-5-methyl-3-(trifluoromethyl)-H-pyrazol-4-yl}-7-fluoroquinoline-2,4-dicarboxamide], the IC50 was 243 nM.
In the case of `Cc1cc(Cn2nc(C)c(NC(=O)c3cc(C(F)(F)F)nc4ccc(Br)cc34)c2C)no1` [Example 1505] it was 323 nM.
With `Cc1nn(C(C)c2ccc(C#N)cc2)c(C)c1NC(=O)c1cc(C(N)=O)nc2cc(F)c(Cl)cc12` (racemic) [Example 330, (±)-6-chloro-N^4-{1-[1-(4-cyanophenyl)ethyl]-3,5-dimethyl-1H-pyrazol-4-yl}-7-fluoroquinoline-2,4-dicarboxamide], the IC50 turned out to be 1.3 nM.
As to `Cc1nn(Cc2ccncc2)c(C)c1NC(=O)c1cc(C(F)(F)F)nc2ccc(Br)cc12` [Example 160, 6-bromo-N-[3,5-dimethyl-1-(pyridin-4-ylmethyl)-1H-pyrazol-4-yl]-2-(trifluoromethyl)quinoline-4-carboxamide], the IC50 was 14.3 nM.
As to `Cc1nn(Cc2ccc(C#N)cn2)c(C)c1NC(=O)c1cc(C(N)=O)nc2ccccc12` [Example 355, N^4-{1-[(5-cyanopyridin-2-yl)methyl]-3,5-dimethyl-1H-pyrazol-4-yl}quinoline-2,4-dicarboxamide], the IC50 was 3.9 nM.
Consider `Cc1nn(Cc2ccc(C(=O)NCCCn3ccnc3)cc2)c(C)c1NC(=O)c1cc(C(F)(F)F)nc2ccc(Br)cc12` [Example 1091], for which the IC50 is 36 nM.
As for `Cc1ccc2nc(C)cc(C(=O)Nc3c(C)nn(Cc4cc(F)ccc4F)c3C)c2c1` [Example 1281], the IC50 came out at 5190 nM.
On to `COc1ccc(CCn2nc(C)c(NC(=O)c3cc(OC)nc4ccccc34)c2C)cc1` [Example 1341], for which the IC50 came out at 297 nM.
